Assay results taken from publication doi:10.1101/2024.08.19.608619, “Discovery of potent SARS-CoV-2 nsp3 macrodomain inhibitors uncovers lack of translation to cellular antiviral response” (bioRxiv, 2024).
Where “and” joins values, the source holds several entries; their conditions need not be identical. Equal values may be shown once.

Key:
[1] = Hepatic microsomal stability, MLM; format: in vitro ADME; details: In vitro mouse liver microsomal stability; for perc_remaining_no_cofactor: no cofactor
KOR receptor = target: T1, KOR receptor (Homo sapiens, UniProt P41145); experiment: Eurofins CEREP panel, KOR; format: binding; details: kappa (h) (KOP) (agonist radioligand); test compound concentration 10 uM
T1 construct: purchased Eurofins Cerep (SafetyScreen44), recognised from the panel format

5-HT2A (h) = target: T2, 5-HT2A (h) (Homo sapiens, UniProt P28223); experiment: In vitro CEREP profiling, 5-HT2A (h) (agonist radioligand); format: binding; details: test compound concentration 10 uM
T2 construct: purchased Eurofins Cerep (SafetyScreen44), recognised from the panel format
Description: (§1) Supplement media-1.zip/Safety_Panel_Profile.csv, table | column: perc_inhibition

Vero E6/TMPRSS2 = Vero E6/TMPRSS2 cytotoxicity with P-gp inhibitor; format: cell-based; details: for perc_max_measured: highest measured response of the dose series; for perc_min_measured: lowest measured response of the dose series
Description: Supplement media-1.zip/Cytotoxicity.csv, table | column: cc10; cc50; perc_min_measured; perc_max_measured

MAO-A = target: T3, MAO-A (Rattus norvegicus, UniProt P21396); experiment: In vitro CEREP profiling, MAO-A (antagonist radioligand); format: binding; details: test compound concentration 10 uM
T3 construct: purchased Eurofins Cerep (SafetyScreen44), recognised from the panel format
T3 sequence (P21396 1-526): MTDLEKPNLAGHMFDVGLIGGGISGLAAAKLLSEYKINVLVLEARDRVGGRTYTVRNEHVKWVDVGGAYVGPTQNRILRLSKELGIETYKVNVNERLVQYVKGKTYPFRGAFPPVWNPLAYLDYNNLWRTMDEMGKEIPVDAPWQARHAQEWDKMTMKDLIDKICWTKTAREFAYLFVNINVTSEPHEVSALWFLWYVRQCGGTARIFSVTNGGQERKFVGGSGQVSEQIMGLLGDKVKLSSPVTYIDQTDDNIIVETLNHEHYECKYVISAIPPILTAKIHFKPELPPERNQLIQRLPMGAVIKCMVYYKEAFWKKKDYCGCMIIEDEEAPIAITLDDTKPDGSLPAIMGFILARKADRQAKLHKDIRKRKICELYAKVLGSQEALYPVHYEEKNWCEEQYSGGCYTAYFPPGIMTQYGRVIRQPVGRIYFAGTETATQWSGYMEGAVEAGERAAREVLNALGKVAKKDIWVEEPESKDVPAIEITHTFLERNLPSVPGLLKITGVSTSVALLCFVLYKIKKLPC
Description: as §1

BZD (central) = experiment: In vitro CEREP profiling, BZD (central) (agonist radioligand); format: binding; details: test compound 10 uM
Description: as §1

AR(h) = experiment: In vitro CEREP profiling, AR(h) (agonist radioligand); format: binding, human; details: test compound concentration 10 uM
Description: as §1

Lck kinase (h) = target: T4, Lck kinase (h) (Homo sapiens, UniProt P06239); experiment: In vitro CEREP profiling, Lck kinase (h); format: biochemical; details: test compound concentration 10 uM; Enzyme and Cell-based assays
T4 construct: purchased Eurofins Cerep (SafetyScreen44), recognised from the panel format
Description: as §1

CB2 (h) = target: T5, CB2 (h) (Homo sapiens, UniProt P34972); experiment: In vitro CEREP profiling, CB2 (h) (agonist radioligand); format: binding; details: test compound 10 uM
T5 construct: purchased Eurofins Cerep (SafetyScreen44), recognised from the panel format
Description: as §1

acetylcholinesterase (h) = target: T6, acetylcholinesterase (h) (Homo sapiens, UniProt P22303); experiment: In vitro CEREP profiling, acetylcholinesterase (h); format: biochemical; details: test compound concentration 10 uM; Enzyme and Cell-based assays
T6 construct: purchased Eurofins Cerep (SafetyScreen44), recognised from the panel format
Description: as §1

delta (DOP) (h) = target: T7, delta (DOP) (h) (Homo sapiens, UniProt P41143); experiment: In vitro CEREP profiling, delta (DOP) (h) (agonist radioligand); format: binding; details: test compound concentration 10 uM
T7 construct: purchased Eurofins Cerep (SafetyScreen44), recognised from the panel format
Description: as §1

CCK1 (CCKA) (h) = target: T8, CCK1 (CCKA) (h) (Homo sapiens, UniProt P32238); experiment: In vitro CEREP profiling, CCK1 (CCKA) (h) (agonist radioligand); format: binding; details: test compound 10 uM
T8 construct: purchased Eurofins Cerep (SafetyScreen44), recognised from the panel format
T8 sequence (P32238 1-428): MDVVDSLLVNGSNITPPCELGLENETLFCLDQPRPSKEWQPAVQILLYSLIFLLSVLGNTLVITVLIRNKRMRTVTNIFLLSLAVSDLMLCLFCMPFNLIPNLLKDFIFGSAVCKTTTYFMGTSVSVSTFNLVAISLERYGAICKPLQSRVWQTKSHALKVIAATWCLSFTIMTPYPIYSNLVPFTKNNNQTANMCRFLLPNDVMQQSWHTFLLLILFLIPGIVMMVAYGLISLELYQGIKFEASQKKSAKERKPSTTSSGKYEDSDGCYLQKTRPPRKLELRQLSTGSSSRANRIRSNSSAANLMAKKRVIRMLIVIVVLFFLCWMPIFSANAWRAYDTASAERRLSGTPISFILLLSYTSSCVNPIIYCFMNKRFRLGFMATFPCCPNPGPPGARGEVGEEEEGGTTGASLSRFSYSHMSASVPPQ
Description: as §1

Na+ channel (site 2) = experiment: In vitro CEREP profiling, Na+ channel (site 2) (antagonist radioligand); format: binding; details: test compound concentration 10 uM
Description: as §1

ETA (h) = target: T9, ETA (h) (Homo sapiens, UniProt P25101); experiment: In vitro CEREP profiling, ETA (h) (agonist radioligand); format: binding; details: test compound 10 uM
T9 construct: purchased Eurofins Cerep (SafetyScreen44), recognised from the panel format
T9 sequence (P25101 21-427): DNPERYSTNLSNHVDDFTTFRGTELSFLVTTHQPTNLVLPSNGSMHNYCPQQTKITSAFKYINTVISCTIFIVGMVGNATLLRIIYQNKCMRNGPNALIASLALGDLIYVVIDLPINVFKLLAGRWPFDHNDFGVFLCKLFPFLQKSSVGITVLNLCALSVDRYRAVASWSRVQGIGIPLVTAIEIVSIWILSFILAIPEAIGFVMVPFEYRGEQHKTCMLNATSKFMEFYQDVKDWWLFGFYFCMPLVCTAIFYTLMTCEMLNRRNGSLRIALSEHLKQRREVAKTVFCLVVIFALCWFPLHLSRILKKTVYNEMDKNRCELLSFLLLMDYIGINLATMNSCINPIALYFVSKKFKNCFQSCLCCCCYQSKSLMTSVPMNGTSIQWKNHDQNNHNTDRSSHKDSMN
Description: as §1

dopamine transporter (h) = target: T10, dopamine transporter (h) (Homo sapiens, UniProt Q01959); experiment: In vitro CEREP profiling, dopamine transporter (h) (antagonist radioligand); format: binding; details: test compound concentration 10 uM
T10 construct: purchased Eurofins Cerep (SafetyScreen44), recognised from the panel format
Description: as §1

MERS-CoV = experiment: microbe, parasite or virus in culture; format: cell-based; details: Vero E6/TMPRSS2 MERS-CoV antiviral effect with P-gp inhibitor; for perc_max_measured: maximum measured response of dose series; for perc_min_measured: minimum measured response of dose series; for EC50: read-out: ec50; for EC90: read-out: ec90

T10 sequence (Q01959 whole entry): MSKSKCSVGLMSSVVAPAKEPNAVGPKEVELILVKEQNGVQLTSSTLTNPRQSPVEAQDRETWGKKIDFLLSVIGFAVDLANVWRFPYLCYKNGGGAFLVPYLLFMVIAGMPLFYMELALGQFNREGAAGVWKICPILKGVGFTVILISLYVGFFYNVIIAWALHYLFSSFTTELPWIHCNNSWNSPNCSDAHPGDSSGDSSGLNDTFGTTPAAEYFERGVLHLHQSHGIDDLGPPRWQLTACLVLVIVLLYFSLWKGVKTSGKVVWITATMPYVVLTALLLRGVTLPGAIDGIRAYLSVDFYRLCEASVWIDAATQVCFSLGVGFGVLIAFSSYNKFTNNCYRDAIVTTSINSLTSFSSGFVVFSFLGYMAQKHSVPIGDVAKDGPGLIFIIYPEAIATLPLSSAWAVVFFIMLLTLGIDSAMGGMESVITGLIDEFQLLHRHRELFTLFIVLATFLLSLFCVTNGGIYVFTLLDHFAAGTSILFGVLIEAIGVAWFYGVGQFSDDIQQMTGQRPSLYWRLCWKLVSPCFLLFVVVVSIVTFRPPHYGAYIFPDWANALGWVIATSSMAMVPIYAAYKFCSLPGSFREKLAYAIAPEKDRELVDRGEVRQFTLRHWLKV
T1 sequence (P41145 whole entry): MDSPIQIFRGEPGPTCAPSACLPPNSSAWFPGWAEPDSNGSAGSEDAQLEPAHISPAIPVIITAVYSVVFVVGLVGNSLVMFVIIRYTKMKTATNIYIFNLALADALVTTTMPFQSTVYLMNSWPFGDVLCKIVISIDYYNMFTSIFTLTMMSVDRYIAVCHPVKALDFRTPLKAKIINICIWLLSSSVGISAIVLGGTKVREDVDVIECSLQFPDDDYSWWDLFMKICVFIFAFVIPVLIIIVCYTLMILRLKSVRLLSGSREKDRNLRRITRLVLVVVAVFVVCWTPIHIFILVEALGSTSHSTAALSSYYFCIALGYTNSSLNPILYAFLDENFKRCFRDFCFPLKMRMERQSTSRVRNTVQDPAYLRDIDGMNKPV
T4 sequence (P06239 whole entry): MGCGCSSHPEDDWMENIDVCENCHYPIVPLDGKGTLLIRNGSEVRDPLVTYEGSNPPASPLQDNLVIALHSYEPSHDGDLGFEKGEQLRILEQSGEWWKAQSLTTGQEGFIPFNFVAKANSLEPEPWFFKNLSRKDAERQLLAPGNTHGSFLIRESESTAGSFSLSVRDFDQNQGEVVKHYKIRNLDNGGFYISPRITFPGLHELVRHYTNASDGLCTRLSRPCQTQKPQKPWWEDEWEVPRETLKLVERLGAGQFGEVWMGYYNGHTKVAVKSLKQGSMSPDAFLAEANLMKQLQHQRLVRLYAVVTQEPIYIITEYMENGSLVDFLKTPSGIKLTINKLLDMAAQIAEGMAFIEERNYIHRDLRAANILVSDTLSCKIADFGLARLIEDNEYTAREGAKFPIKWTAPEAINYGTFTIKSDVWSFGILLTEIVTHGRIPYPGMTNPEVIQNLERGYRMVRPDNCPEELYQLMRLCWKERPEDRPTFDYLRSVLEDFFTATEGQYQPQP
T7 sequence (P41143 whole entry): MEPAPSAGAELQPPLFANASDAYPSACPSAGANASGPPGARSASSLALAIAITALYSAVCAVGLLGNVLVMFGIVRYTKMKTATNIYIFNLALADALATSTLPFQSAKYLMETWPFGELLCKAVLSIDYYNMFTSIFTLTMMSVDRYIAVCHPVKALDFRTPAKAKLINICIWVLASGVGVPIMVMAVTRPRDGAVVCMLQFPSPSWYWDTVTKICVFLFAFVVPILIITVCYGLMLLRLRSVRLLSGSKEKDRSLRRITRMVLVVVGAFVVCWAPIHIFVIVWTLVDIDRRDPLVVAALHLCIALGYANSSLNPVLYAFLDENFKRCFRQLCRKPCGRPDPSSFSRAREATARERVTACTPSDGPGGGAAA
T5 sequence (P34972 whole entry): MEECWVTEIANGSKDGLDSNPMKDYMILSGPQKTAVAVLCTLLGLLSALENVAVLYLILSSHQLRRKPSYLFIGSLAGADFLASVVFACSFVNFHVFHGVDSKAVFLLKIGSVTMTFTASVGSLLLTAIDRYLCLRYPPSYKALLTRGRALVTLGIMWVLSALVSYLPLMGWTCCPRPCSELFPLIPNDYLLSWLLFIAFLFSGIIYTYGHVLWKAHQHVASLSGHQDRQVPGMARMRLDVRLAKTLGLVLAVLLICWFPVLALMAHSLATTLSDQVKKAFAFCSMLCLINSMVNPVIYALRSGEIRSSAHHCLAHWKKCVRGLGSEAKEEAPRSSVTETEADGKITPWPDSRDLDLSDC
T2 sequence (P28223 whole entry): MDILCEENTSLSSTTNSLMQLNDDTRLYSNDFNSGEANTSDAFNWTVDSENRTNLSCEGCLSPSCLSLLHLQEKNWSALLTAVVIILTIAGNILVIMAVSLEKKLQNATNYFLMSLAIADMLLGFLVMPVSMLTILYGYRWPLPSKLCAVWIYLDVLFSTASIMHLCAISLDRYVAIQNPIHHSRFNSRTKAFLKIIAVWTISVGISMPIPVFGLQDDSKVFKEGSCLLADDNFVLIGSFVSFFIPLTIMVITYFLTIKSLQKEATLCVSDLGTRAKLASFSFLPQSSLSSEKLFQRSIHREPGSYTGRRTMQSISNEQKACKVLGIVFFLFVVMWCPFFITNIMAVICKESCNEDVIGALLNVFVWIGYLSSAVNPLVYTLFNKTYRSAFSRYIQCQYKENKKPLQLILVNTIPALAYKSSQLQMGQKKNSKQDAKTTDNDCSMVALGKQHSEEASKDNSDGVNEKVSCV
T6 sequence (P22303 32-614): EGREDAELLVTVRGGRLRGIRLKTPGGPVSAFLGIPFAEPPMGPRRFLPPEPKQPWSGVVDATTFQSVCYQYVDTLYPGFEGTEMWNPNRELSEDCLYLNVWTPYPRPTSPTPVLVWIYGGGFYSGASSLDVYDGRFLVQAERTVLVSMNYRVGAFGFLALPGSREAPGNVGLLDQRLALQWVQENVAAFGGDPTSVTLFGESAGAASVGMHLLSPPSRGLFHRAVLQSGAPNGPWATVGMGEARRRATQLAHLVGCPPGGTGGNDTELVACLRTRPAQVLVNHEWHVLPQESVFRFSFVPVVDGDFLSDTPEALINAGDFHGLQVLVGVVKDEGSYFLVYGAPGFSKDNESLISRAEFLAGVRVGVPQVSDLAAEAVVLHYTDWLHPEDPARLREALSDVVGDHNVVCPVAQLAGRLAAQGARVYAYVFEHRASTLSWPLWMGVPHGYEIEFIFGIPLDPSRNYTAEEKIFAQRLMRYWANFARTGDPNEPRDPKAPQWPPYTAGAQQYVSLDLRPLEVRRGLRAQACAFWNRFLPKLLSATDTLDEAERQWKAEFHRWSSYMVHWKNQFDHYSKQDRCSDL

Compound	clint [1]	perc_remaining [1]	t_half [1]	perc_remaining_no_cofactor [1]	perc_inhibition (% inhibition of the binding of a ligand specific for each target) (KOR receptor)	perc_inhibition (% inhibition of the binding of a ligand specific for each target) (5-HT2A (h))	CC50 (Vero E6/TMPRSS2)	cc10 (Vero E6/TMPRSS2)	perc_max_measured (Vero E6/TMPRSS2)	perc_min_measured (Vero E6/TMPRSS2)	perc_inhibition (% inhibition of the binding of a ligand specific for each target) (MAO-A)	perc_inhibition (% inhibition of the binding of a ligand specific for each target) (BZD (central))	perc_inhibition (% inhibition of the binding of a ligand specific for each target) (AR(h))	perc_inhibition: % inhibition of control enzyme activity, Lck kinase (h) (Lck kinase (h))	perc_inhibition (% inhibition of the binding of a ligand specific for each target) (CB2 (h))	perc_inhibition: % inhibition of control enzyme activity, acetylcholinesterase (h) (acetylcholinesterase (h))	perc_inhibition (% inhibition of the binding of a ligand specific for each target) (delta (DOP) (h))	perc_inhibition (% inhibition of the binding of a ligand specific for each target) (CCK1 (CCKA) (h))	perc_inhibition (% inhibition of the binding of a ligand specific for each target) (Na+ channel (site 2))	perc_inhibition (% inhibition of the binding of a ligand specific for each target) (ETA (h))	also measured
COc1ccc([C@H](Cc2nnn[nH]2)NC(=O)c2ncnc3[nH]ccc23)cc1 [ASAP-0015381]	7.0 µL/min/mg	115.387%	205.885 min	100.411%	2%	-4%	> 5 µM	> 5.0 µM	119.979%	89.804%	0%	0%	-2%	4%	-11%	11%	-30%	-5%	-3%	2%	perc_inhibition (% inhibition of the binding of a ligand specific for each target) (dopamine transporter (h)): 7%; perc_max_measured (MERS-CoV): 110.958% and 111.344%; perc_min_measured (MERS-CoV): 85.891% and 86.764%; EC50 (MERS-CoV): > 5 µM; EC90 (MERS-CoV): > 5 µM
CNCc1cc(-c2cc3c(N[C@@H](c4ccc5c(c4)S(=O)(=O)CCC5)C(C)C)ncnc3[nH]2)co1 [ASAP-0011176]	54.0 µL/min/mg	35.0%	30.9 min	101.0%	57%	29%	> 5 µM	> 5.0 µM	117.999%	102.841%	11%	28%	10%	68%	-8%	10%	53%	-24%	19%	-1%	perc_inhibition (% inhibition of the binding of a ligand specific for each target) (dopamine transporter (h)): 50%; perc_max_measured (MERS-CoV): 108.298% and 134.469%; perc_min_measured (MERS-CoV): 91.617% and 86.125%; EC50 (MERS-CoV): > 5 µM; EC90 (MERS-CoV): > 5 µM
